Test results as given in patent publication US20220144841A1, “TRISUBSTITUTED PYRAZOLO [1,5-A] PYRIMIDINE COMPOUNDS AS CDK7 INHIBITORS” (THE TRANSLATIONAL GENOMICS RESEARCH INSTITUTE, priority 2019, published 2022).
Counter-ions that a name gives are not always drawn.

Target: T1, CDK7/CycH/MAT1 (Homo sapiens, UniProt P50613)
T1 construct: purchased ProQinase 0366-0360-4
Test: Kinase ADP-Glo Assay
Assay type: biochemical
Conditions: ADP-Glo assay (compounds without *), ATP 1 μM, 60 minutes at room temperature
Method: Assay Buffer: 50 mM HEPES, 3 mM MgCl2, 3 mM MnCl2, 1 mM DTT, 3 μM Na3VO4, pH 7.5
Substrate RB: CTF Peptide (ProQinase #: 0040-0000-6)
ADP-Glo™ Assay (Promega #: V9101): ATP: 10 mM, ADP-Glo™ Reagent, Kinase Detection Reagent
384-well white assay plates
A ten point serial dilution of compound was prepared at 5× concentration in assay buffer with the final assay concentrations starting at 30 μM, 10 μM, 3 μM, 1 μM . . . 0 μM. Enzyme, substrate, and ATP were used at 40 ng, 200 ng (or 400 ng)^+ and 1 μM, respectively. The assay plate was set up by mixing the components in a total reaction volume of 10 μL per well. The plate was centrifuged gently for 10 seconds and incubated at room temperature (RT) for 60 minutes in the dark. The ADP-Glo Reagent and kinase detection reagent were added and incubated as recommended. The reaction was quantified by measuring luminescence on the Perkin Elmer Envision plate reader. Data was analyzed using Graphpad Prism 7 software. *With CDK2 enzyme, 400 ng of substrate was used.

T1 sequence (P50613 whole entry): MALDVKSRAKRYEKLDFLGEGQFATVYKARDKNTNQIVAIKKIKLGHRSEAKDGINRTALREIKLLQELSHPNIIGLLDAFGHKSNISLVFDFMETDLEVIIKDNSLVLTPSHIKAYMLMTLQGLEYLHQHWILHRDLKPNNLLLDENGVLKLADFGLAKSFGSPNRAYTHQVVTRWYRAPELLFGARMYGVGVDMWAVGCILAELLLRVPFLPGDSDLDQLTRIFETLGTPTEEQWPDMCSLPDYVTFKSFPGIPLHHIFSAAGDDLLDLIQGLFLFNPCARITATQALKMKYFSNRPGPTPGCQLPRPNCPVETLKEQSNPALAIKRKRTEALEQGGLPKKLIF
T1 sequence (P51946 whole entry partner): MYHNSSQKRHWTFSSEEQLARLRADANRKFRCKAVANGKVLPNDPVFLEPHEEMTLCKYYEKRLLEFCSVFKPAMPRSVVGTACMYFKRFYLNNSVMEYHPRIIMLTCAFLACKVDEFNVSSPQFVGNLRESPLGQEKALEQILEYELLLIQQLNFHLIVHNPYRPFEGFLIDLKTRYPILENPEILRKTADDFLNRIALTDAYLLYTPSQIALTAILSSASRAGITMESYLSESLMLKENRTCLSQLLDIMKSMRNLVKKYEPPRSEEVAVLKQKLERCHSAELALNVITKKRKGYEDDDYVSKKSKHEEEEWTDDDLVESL
T1 sequence (P51948 whole entry partner): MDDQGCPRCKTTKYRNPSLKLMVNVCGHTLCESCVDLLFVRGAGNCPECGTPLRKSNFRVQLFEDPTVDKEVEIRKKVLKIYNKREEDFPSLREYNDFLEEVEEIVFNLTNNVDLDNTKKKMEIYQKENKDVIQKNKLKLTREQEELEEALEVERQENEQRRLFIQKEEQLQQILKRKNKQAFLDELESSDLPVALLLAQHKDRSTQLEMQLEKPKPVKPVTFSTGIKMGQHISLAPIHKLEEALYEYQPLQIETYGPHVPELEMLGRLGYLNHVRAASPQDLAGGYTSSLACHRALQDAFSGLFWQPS

Row | IC50 | SMILES
1 | > 1000 nM | O[C@@H]1CNC[C@@H](Nc2cc(Nc3cccc(F)c3)n3ncc(C4CC4)c3n2)C1 [Compound I-22, hydrochloride]
2 | 100 to 1000 nM | O[C@H]1CNCC[C@@H]1CNc1cc(Nc2cc(F)cc(F)c2)n2ncc(C3CC3)c2n1 [Compound I-46, (3R,4R)-4-((3-cyclopropyl-7-((3,5-difluorophenyl)amino)pyrazolo[1,5-a]pyrimidin-5-yl)aminomethyl)piperidin-3-ol]
3 | 100 to 1000 nM | Fc1cc(Nc2cc(O[C@H]3CCCNC3)nc3c(C4CC4)cnn23)cc(C(F)(F)F)c1 [Compound I-64, (S)-3-cyclopropyl-N-(5-fluoro-3-trifluoromethylphenyl)-5-((piperidin-3-yl)oxy)pyrazolo[1,5-a]pyrimidin-7-amine]
4 | < 100 nM | Fc1cc(Nc2cc(O[C@H]3CCCNC3)nc3c(C4CCC4)cnn23)cc(C(F)(F)F)c1 [Compound I-65, (S)-3-cyclobutyl-N-(5-fluoro-3-trifluoromethylphenyl)-5-((piperidin-3-yl)oxy)pyrazolo[1,5-a]pyrimidin-7-amine]
5 | < 100 nM | O[C@@H]1CNCC[C@H]1COc1cc(Nc2cccc(F)c2)n2ncc(C3CC3)c2n1 (relative stereo) [Compound I-53, trans-4-((3-cyclopropyl-7-((3-fluorophenyl)amino)pyrazolo [1,5-a]pyrimidin-5-yl)oxymethyl)piperidin-3-ol]
6 | 100 to 1000 nM | Fc1cccc(Nc2cc(OC[C@H]3CCCNC3)nc3c(C4CC4)cnn23)c1 [Compound I-14]

More lines, now with the values behind:

Row | SMILES | IC50
7 | N#Cc1cccc(Nc2cc(NC[C@H]3CCNC[C@@H]3O)nc3c(C4CC4)cnn23)c1 [Compound I-48, (3R,4R)-3-(((3-cyclopropyl-5-(3-hydroxypiperidin-4-yl)methylamino)pyrazolo[1,5-a]pyrimidin-7-yl)amino)benzonitrile] | < 100 nM
8 | N#Cc1cccc(Nc2cc(NC[C@@H]3CCNC[C@H]3O)nc3c(C4CC4)cnn23)c1 [Compound I-15, (3S,4S)-3-((3-cyclopropyl-5-(((3-hydroxy)piperidin-4-yl)methylamino)pyrazolo[1,5-a]pyrimidin-7-yl)amino)benzonitrile] | 100 to 1000 nM
9 | Cc1cccc(CNc2cc(N[C@H]3CCCNC3)nc3c(C#N)cnn23)c1 [Compound I-30, (S)-7-((3-methylbenzyl)amino)-5-((piperidin-3-yl)amino)pyrazolo[1,5-a]pyrimidine-3-carbonitrile] | 100 to 1000 nM
10 | Cc1cc(Nc2cc(N[C@H]3CCCNC3)nc3c(C4CCC4)cnn23)cc(C(F)(F)F)c1 [Compound I-63, (S)-3-cyclobutyl-N^7-(5-methyl-3-trifluoromethylphenyl)-N^5-(piperidin-3-yl)pyrazolo[1,5-a]pyrimidine-5,7-diamine] | < 100 nM
11 | O[C@@H]1CNCC[C@H]1CNc1cc(Nc2cccc(F)c2)n2ncc(C3CC3)c2n1 [Compound I-17] | 100 to 1000 nM
12 | Cc1cc(C#N)cc(Nc2cc(N[C@H]3CCCNC3)nc3c(C4CCC4)cnn23)c1 [Compound I-68, (S)-3-((3-cyclobutyl-5-((piperidin-3-yl)amino)pyrazolo[1,5-a]pyrimidin-7-yl)amino)-5-methylbenzonitrile] | < 100 nM
13 | N#Cc1cc(F)cc(Nc2cc(NC[C@H]3CCNC[C@@H]3O)nc3c(C4CCC4)cnn23)c1 [Compound I-55, (3R,4R)-3-((3-cyclobutyl-5-((3-hydroxypiperidin-4-yl)methylamino)pyrazolo[1,5-a]pyrimidin-7-yl)amino)-5-fluorobenzonitrile] | < 100 nM
14 | O[C@H]1CNCC[C@@H]1CNc1cc(Nc2cccc(F)c2)n2ncc(C3CC3)c2n1 [Compound I-45, (3R,4R)-4-((3-cyclopropyl-7-((3-fluorophenyl)amino)pyrazolo [1,5-a]pyrimidin-5-yl)aminomethyl)piperidin-3-ol] | < 100 nM
15 | Cc1cc(C#N)cc(Nc2cc(N[C@H]3CCCNC3)nc3c(C4CC4)cnn23)c1 [Compound I-67, (S)-3-((3-cyclopropyl-5-((piperidin-3-yl)amino)pyrazolo[1,5-a]pyrimidin-7-yl)amino)-5-methylbenzonitrile] | 100 to 1000 nM
